SMILES strings stand for the structures.

The test system of the first test is HepG2 human hepatocytes. Description: Human cell cytotoxicity assay. To be noted: HepG2, read-out: HepG2 EC50. Type of test: cell-based.
Take `COC(=O)[C@@]12Oc3cc4c(c(O)c3C(=O)C1=C(O)CC[C@@H]2O)[C@@H]1C=C[C@@]2(C4)C(=O)c3cc(C)cc(O)c3C(=O)[C@]2(O)C1=O` [compound 1, xanthoquinodin NPDG A1]: the EC50 was above 25 µM.

In the case of `COC(=O)[C@]1([C@@H](O)CCC(=O)O)CC(=O)c2c(cc3c(c2O)[C@@H]2C=C[C@@]4(C3)C(=O)c3cc(C)cc(O)c3C(O)=C4C2=O)O1` [compound 3, xanthoquinodin NPDG A3], the EC50 is above 25 µM.

For `COC(=O)[C@]1([C@@H](O)CCC(=O)O)CC(=O)c2c(cc3c(c2O)[C@@H]2C=C[C@@]4(C3)C(=O)c3cc(C)cc(O)c3C(=O)[C@]4(O)C2=O)O1` [compound 4, Xanthoquinodin NPDG A4], the EC50 is above 25 µM.

With `COC(=O)[C@]1([C@@H]2CCC(=O)O2)CC(=O)c2c(cc3c(c2O)[C@@H]2C=C[C@@]4(C3)C(=O)c3cc(C)cc(O)c3C(=O)[C@]4(O)C2=O)O1` [compound 5, Xanthoquinodin NPDG A5], the EC50 is above 25 µM.

Take `COC(=O)[C@]12Oc3c(c(O)cc4c3[C@@H]3C=C[C@@]5(C4)C(=O)c4cc(C)cc(O)c4C(=O)[C@]5(O)C3=O)C(=O)C1=C(O)CC[C@@H]2O` [compound 6, xanthoquinodin NPDG B1]: the EC50 was above 25 µM.

In the case of `COC(=O)[C@@]12Oc3cc4c(c(O)c3C(=O)C1=C(O)CC[C@@H]2O)[C@@H]1C=C[C@@]2(C4)C(=O)c3cc(C)cc(O)c3C(O)=C2C1=O` [compound 7, xanthoquinodin A1], the EC50 was above 25 µM.

`COC(=O)[C@]12Oc3cc4c(c(O)c3C(=O)C1=C(O)CC[C@@H]2O)[C@@H]1C=C[C@@]2(C4)C(=O)c3cc(C)cc(O)c3C(O)=C2C1=O` [compound 8, xanthoquinodin A2]: the EC50 is above 25 µM.

With `COC(=O)[C@]1([C@@H]2CCC(=O)O2)CC(=O)c2c(cc3c(c2O)[C@@H]2C=C[C@@]4(C3)C(=O)c3cc(C)cc(O)c3C(O)=C4C2=O)O1` [compound 9, xanthoquinodin A3], the EC50 is above 25 µM.

Take `COC(=O)[C@]1([C@@H]2CCC(=O)O2)CC(=O)c2c(O)cc(C)cc2O1` [compound 12, gonytolide C]: the EC50 was above 25 µM.

The next test relates to P. falciparum Dd2. The test is described as follows: Plasmodium falciparum SYBR Green I assay. It is filed as cell-based. The settings on record: relative to HepG2 cytotoxicity.
Turning to `COC(=O)[C@]12Oc3cc4c(c(O)c3C(=O)C1=C(O)CC[C@@H]2O)[C@@H]1C=C[C@@]2(C4)C(=O)c3cc(C)cc(O)c3C(O)=C2C1=O` [compound 8, xanthoquinodin A2], the “P. falciparum SI” value is above 50.

The record behind these values is PMC10797637 (Journal of natural products, 2023).
